Assays:
[1] = system: elastase derived from human skin fibroblasts (NHDF-Ad); assay: elastase activity inhibition test (anti-wrinkle test); format: biochemical; conditions: 50 nM; 37° C. for 2 hours
Description: Therefore, in this example, elastase activity was evaluated by measuring an amount of nitroaniline produced using elastase derived from human skin fibroblasts (NHDF-Ad), and using N-Succinyl-Ala-Ala-Ala-β-nitroanilide as a substrate. Based on the elastase activity, a skin dermis elasticity retention and aging function (an activity inhibition rate) of the test object of rice malt lactic acid bacterium fermentation liquid SW01 (hereinafter, SW01) was examined.
The elastase activity was set to 100% using, as a control, a reaction with only elastase derived from human skin fibroblasts (NHDF-Ad) and N-Succinyl-Ala-Ala-Ala-β-nitroanilide as a substrate. Reaction conditions in this experiment were 37° C. for 2 hours.

[2] = system: rat basophilic leukemia cell RBL-2H3; assay: degranulation inhibition: β-hexosaminidase activity of antigen-stimulated RBL-2H3 cells; format: cell-based; conditions: 50 µg/mL, positive control
Description: To determine an extent to which the test object inhibits degranulation, degranulation is assessed by measuring the activity of β-hexosaminidase, which is abundantly present in the granulocyte. Accordingly, the effect of the test object on allergic reaction is evaluated. It is known that rat basophilic leukemia cell RBL-2H3 releases the granulocyte containing histamine and the like to the outside of the cell when IgE bound to the cell surface is cross-linked with an antigen. This has been applied as an experimental system to exploratory research and the like as screening for substances having an anti-allergic action against type I allergy. In this example, the inhibition of degranulation is evaluated by stimulating RBL-2H3 cells with an antigen and measuring the activity of β-hexosaminidase (FIG. 4). […] Further, […] of quercetin was used as a positive control. […] By adding […] of the rice malt lactic acid bacterium fermentation liquid SW01, the activity of β-hexosaminidase was about 50%. […] Note that, the p value in FIG. 4 is p<0.01.

Row | SMILES | elastase inhibition by standard agent [1] | activity of β-hexosaminidase (control with sterilized water = 100%) [2]
1 | CC(C)C[C@H](NP(=O)(O)O[C@@H]1O[C@@H](C)[C@H](O)[C@@H](O)[C@H]1O)C(=O)N[C@@H](Cc1c[nH]c2ccccc12)C(=O)O [phosphoramidon] | show elastase inhibition | 
2 | O=c1c(O)c(-c2ccc(O)c(O)c2)oc2cc(O)cc(O)c12 [quercetin] |  | about 40%

Source: patent publication US20250152496A1, “SKIN IMPROVING AGENT CONTAINING FERMENTED EXTRACT AS MAIN RAW MATERIAL” (priority 2022, published 2025)
